Paper PMC11187260, “Unraveling the interconversion pharmacokinetics and oral bioavailability of the major ginger constituents: [6]-gingerol, [6]-shogaol, and zingerone after single-dose administration in rats” (Frontiers in Pharmacology, 2024)
Like-named read-outs stand apart in the source and are kept apart here.

Key:
Type in all cases: in vivo, Female Sprague Dawley rats
[1] = Pharmacokinetics and oral bioavailability after single oral administration (30 mg/kg), plasma LC-MS/MS; settings: for bioavailability / AUC(0-inf) / AUC(0-t) / Tmax: plasma, 30 mg/kg; for AUC(0-t): read-out: AUC(0-t); for Tmax: median [IQR]
Protocol: (§1) This study is composed of two sections; the first section involves an investigation of the interconversion pharmacokinetics of the pure compounds, and the second focuses on tissue distribution. All rats were transferred to metabolic cages and fasted overnight for at least 10 h. The animals were then randomly divided into four groups (6 rats/group) to receive a single intravenous (i.v.) administration of either 6G, 6S, zingerone, or vehicle via the lateral tail vein at a dosage of 3 mg/kg. After a 7-week washout period, the rats received 30 mg/kg of the same test compounds through a single oral (p.o.) administration. Following each administration, blood samples (300 µL) were collected in heparinized tubes from the lateral tail vein (while rats were under anesthesia with isoflurane) at specified time points: 0.083, 0.25, 0.5, 1, 1.5, 2, 3, 4, 6, 8, and 24 h after administration. An additional 1 mL of blood sample was collected from each rat at pre-dose (0 h) and post-dose (24 h) for clinical laboratory testing and safety evaluation. All heparinized blood samples were initially centrifuged at 5,000 × g, 4 °C, for 10 min. Subsequently, the plasma was carefully transferred to a cryotube as an aliquot sample and then stored at −40 °C until analysis. Urine and feces were collected during the intervals of 0–24 h and 24–48 h post-dosing, and their weights and volumes were documented. All collected urine and feces samples were stored at −40 °C until analysis.
Plasma samples were processed through protein precipitation. In brief, 50 µL of plasma was mixed with 200 µL of methanol containing 50 ng/mL of IS (dihydrocapsaicin). The mixtures were vortexed and centrifuged at 14,000 × g at 4 °C for 10 min. The supernatant was filtered through a […] PVDF membrane (Chrome Tech, MN, USA) before analysis.
(§2) Investigation of glucuronide conjugations followed a previously published method with some modification ([Wang et al., 2017]; [Songvut et al., 2023]). A 50 μL aliquot of plasma, urine, or feces sample was incubated at 37 °C for a minimum of 30 min with 50 μL of β-glucuronidase (3,000 U/mL) in a sodium phosphate buffer (pH 6.8). For sample extraction, 150 μL of methanol containing 50 μg/L of IS was pipetted into the pre-incubated samples. Subsequently, the mixtures were vortexed for 10 min and then centrifuged at 14,000 × g at 4 °C for 10 min. The supernatants were filtered through a […] PVDF membrane (Chrome Tech, MN, United States) and then analyzed using the validated LC-MS/MS method.
Quantitative analysis was conducted using liquid chromatography-tandem mass spectrometry (LC-MS/MS) with a Nexera X2 LCMS-8060NX instrument (Shimadzu, Japan). The instrument included a CBM-40lite system controller, CTO-40C column oven, SIL-40C XR autosampler, LC-40D XR solvent pump unit, FCV-DGU-403 degasser, and 20AH2 switching valve. The LC-MS/MS system was operated with a binary pump and equipped with a triple quadrupole mass spectrometer.
Pharmacokinetic parameters were assessed using PK Solutions software (version 2.0) with non-compartmental analysis. The AUC was calculated using the Linear-Log Trapezoidal Method. The maximum plasma concentration (Cmax) and time to reach maximum plasma concentration (Tmax) were taken directly from the graph.
(§3) Plasma concentration-time profiles were plotted using GraphPad Prism 9.3.0 (GraphPad Software, USA). The absolute oral bioavailability was calculated as follows: F = (AUC p.o./dose p.o.)/(AUC i.v./dose i.v.). The percentage recovery of each administered compound was calculated as the total amount of the drug found in urine or feces divided by the administered dose. The tissue-to-plasma concentration ratios (K p) were calculated by dividing the concentration in the tissue by the corresponding plasma concentration at the respective sampling time point.

[2] = Percent recovery in urine and feces after intravenous or oral administration; settings: for dose excreted: female, Sprague Dawley, rat, % of administered dose
Protocol: as §1
Urine samples were centrifuged, and 50 µL of urine was extracted with 200 µL of 100% methanol. The mixture was vortexed for 10 min and subsequently centrifuged at 14,000 × g at 4 °C for 10 min. Feces and organs were weighed and homogenized with methanol (50:50% w/v). The supernatants of the extracted urine, feces, and organs were also filtered through a […] PVDF membrane (Chrome Tech, MN, USA) before analysis.
as §2, §3

[3] = Safety evaluation: physical appearance and blood chemistry after single i.v. or p.o. dose; settings: for ALP / ALT / AST / BUN / Creatinine: post-dose (24 h), mean ± SD n=6; for Physical appearance: post-dose
Protocol: as §1
Plasma samples were collected at baseline (T0) and T24 h for the determination of blood chemistry, including levels of blood urea nitrogen (BUN), creatinine, aspartate transaminase (AST), alanine transaminase (ALT), and alkaline phosphatase (ALP). The analyses were conducted by the Exclusive Veterinary Professional Laboratory Center (Bangkok, Thailand). The creatinine level was determined using an enzymatic oxidase assay, while AST and ALT levels were determined using the procedure of the International Federation of Clinical Chemistry (IFCC) without pyridoxal phosphate activation.

[4] = Interconversion clearance between 6G and 6S after intravenous administration; settings: female, Sprague-Dawley, rat, plasma, iv; single i.v. 3 mg/kg; read-out: CL20 (irreversible elimination clearance of 6S) (converted)
Protocol: The interconversion between 6G and 6S was determined using previously published methods ([Ebling and Jusko, 1986]; [Prueksaritanont et al., 2005]). The clearance of 6G biotransformed into 6S was calculated as CL12, while the reverse clearance (6S → 6G) was calculated as CL21. The irreversible elimination clearances of 6G and 6S were calculated as CL10 and CL20, respectively. The following equations were used in accordance with the notation provided in Supplementary Table S3. CL12=Dose^shogaol […] CL21=Dose^gingerol […] CL10=Dose^gingerol x AUCshogaolshogaol- Dose^shogaol […] CL20=Dose^shogaol […]- Dose^gingerol […]

[5] = female, Sprague-Dawley, rat, po, plasma analyte after [6]-gingerol p.o. 30 mg/kg, mean ± SD n=6
[6] = female, Sprague-Dawley, rat, po, plasma analyte after [6]-shogaol p.o. 30 mg/kg, mean ± SD n=6

With `CCCCC/C=C/C(=O)CCc1ccc(O)c(OC)c1` [[6]-shogaol] the bioavailability ([1]; female, Sprague-Dawley, rat, po, p.o. 30 mg/kg vs i.v. 3 mg/kg of the pure compound, mean ± SD n=6, read-out: %Oral bioavailability) was 0.15 ± 0.1%, the bioavailability ([1]; female, Sprague-Dawley, rat, po, p.o. 30 mg/kg vs i.v. 3 mg/kg of the pure compound, range among rats, read-out: %Oral bioavailability (range)) was 0.1 to 0.31% and the bioavailability ([1]; female, Sprague-Dawley, rat, po, p.o. 30 mg/kg vs i.v. 3 mg/kg, pure compounds, read-out: absolute oral bioavailability (upper bound)) was < 2%. The AUC(0-inf) [1, 5] was 10.3 ± 4.14 ng·h/mL, the AUC(0-t) [1, 5] was 10.2 ± 4.01 ng·h/mL and the Tmax ([1]; female, Sprague-Dawley, rat, po, plasma analyte after [6]-gingerol p.o. 30 mg/kg) was 15 min. For the same compound, the AUC(0-inf) [1, 6] was 66.9 ± 30.5 ng·h/mL, the AUC(0-t) [1, 6] was 66.9 ± 30.5 ng·h/mL and the Tmax ([1]; female, Sprague-Dawley, rat, po, plasma analyte after [6]-shogaol p.o. 30 mg/kg) was 45 min. The Cmax [1, 6] was 51.8 ± 20.9 ng/mL, the “presence of parent compound in plasma” value ([1]; following oral administration) was “up to 4 h” and the “parent compound recovered in urine” value ([2]; during 24–48 h) was “less than 1%”. The dose excreted ([2]; feces, iv, 3 mg/kg, intravenous administration 3 mg/kg of parent compound, read-out: % Recovery excretion, feces T 0–24 h) was < 0.001%, the dose excreted ([2]; feces, po, 30 mg/kg, oral administration 30 mg/kg of parent compound, read-out: % Recovery excretion, feces T 0–24 h) was 0.001 ± 0.001% and the dose excreted ([2]; feces, po, 30 mg/kg, oral administration 30 mg/kg of parent compound, read-out: % Recovery excretion, feces T 24–48 h) was 0.002 ± 0.002%. For the same compound, the dose excreted ([2]; urine, iv, 3 mg/kg, intravenous administration 3 mg/kg of parent compound, read-out: % Recovery excretion, urine T 0–24 h) was 0.003 ± 0.002%, the dose excreted ([2]; urine, iv, 3 mg/kg, intravenous administration 3 mg/kg of parent compound, read-out: % Recovery excretion, urine T 24–48 h) was < 0.001% and the dose excreted ([2]; urine, po, 30 mg/kg, oral administration 30 mg/kg of parent compound, read-out: % Recovery excretion, urine T 0–24 h) was 0.001 ± 0.001%. For the same compound, the dose excreted ([2]; urine, po, 30 mg/kg, oral administration 30 mg/kg of parent compound, read-out: % Recovery excretion, urine T 24–48 h) was < 0.001%, the “unchanged form in fecal excretion” value ([2]; within 48 h after intravenous or oral administration) was < 0.1% and the ALP ([3]; i.v. 3 mg/kg) was 49.50 ± 14.46 U/L. The ALT ([3]; i.v. 3 mg/kg) was 18.83 ± 3.92 U/L, the AST ([3]; i.v. 3 mg/kg) was 59.50 ± 5.61 U/L and the BUN ([3]; i.v. 3 mg/kg) was 14.17 ± 1.72 mg/dL. The Creatinine ([3]; i.v. 3 mg/kg) was 0.73 ± 0.02 mg/dL, the ALP ([3]; p.o. 30 mg/kg) was 39.17 ± 11.20 U/L and the ALT ([3]; p.o. 30 mg/kg) was 22.50 ± 5.89 U/L. The AST ([3]; p.o. 30 mg/kg) was 63.83 ± 11.77 U/L, the BUN ([3]; p.o. 30 mg/kg) was 14.00 ± 2.00 mg/dL and the Creatinine ([3]; p.o. 30 mg/kg) was 0.71 ± 0.02 mg/dL. The Physical appearance ([3]; i.v. 3 mg/kg) was “Normal”, the Physical appearance ([3]; p.o. 30 mg/kg) was “Normal” and the Tolerability ([3]; single i.v. 3 mg/kg or p.o. 30 mg/kg) was “exhibited tolerance”. For the same compound, the clearance [4] was 11.3 mL/min/kg.
